# System: IKKε-mediated phosphorylation of IRF3
# Assay: ELISA for in-situ phosphorylation of IRF3 (phospho-Ser396) in HEK293T cells cotransfected with IRF3 and IKKε
# Type: cell-based
# Conditions: Homo sapiens, HEK-293T, 20 h, HEK293T cells, 20 hours; range given from about 1 μM to about 250 nM; read-out: IC50, in-situ IKKε-mediated phosphorylation of IRF3
# Procedure: HEK293T cells were cotransfected in a 10-cm dish with IRF3 and IKKε expression plasmids using Lipofectamine 2000 (Invitrogen, Carlsbad, Calif.). The following day, cells were replated at 20,000 per well in 96-well plates and treated with test compounds (compounds according to Formulae I and/or II) for 20 hours. Cell lysates were prepared and analyzed using an ELISA for phospho-Ser396 (anti-IRF3 capture antibody, Santa Cruz Biotechnology, Inc., Santa Cruz, Calif.; anti-p-Ser396 IRF3 detection antibody, Cell Signaling, Danvers, Mass.). pIRF3 levels in compound treated cells were normalized to DMSO treated cells (no compound). Cell viability was assayed in a parallel set of plates to monitor cytotoxic effects of the test compounds (CellTiter-Glo, Promega, Inc., Madison, Wis.). TBK1 activity was tested by Western blotting using a phospho-specific IRF7 antibody. Similar to above, HEK293T cells were transfected with IRF7 and TBK1 expression plasmids. Cells were seeded in 12-well plates at 150,000 per well and treated overnight with test compounds. Protein lysates were prepared and processed for Western blotting followed by detection using a phosphor-Ser477/Ser479 IRF7 antibody (BD Biosciences, San Jose, Calif.)
row,Compound,IC50 [nM]
1,"CN1CCN(c2ccc(Nc3nccc(-c4ccc(OC5CCOCC5)c(C#N)c4)n3)nn2)CC1 [Example Compound 85, 5-(2-{[6-(4-Methylpiperazin-1-yl)pyridazin-3-yl]amino}pyrimidin-4-yl)-2-(tetrahydro-2H-pyran-4-yloxy)benzonitrile]",250 to 1000
2,"COC1CN(C(=O)c2cncc(Nc3nccc(-c4ccc(OC5CCOCC5)c(C#N)c4)n3)c2)C1 [Example Compound 171, 5-[2-({5-[(3-Methoxyazetidin-1-yl)carbonyl]pyridin-3-yl}amino)pyrimidin-4-yl]-2-(tetrahydro-2H-pyran-4-yloxy)benzonitrile]",250 to 1000
3,"CN(C)c1ccc(Nc2nccc(-c3ccc(OC4CCN(C(=O)CO)C4)c(C#N)c3)n2)cn1 (stereo not shown) [Example Compound 192, 5-(2-{[6-(Dimethylamino)pyridin-3-yl]amino}pyrimidin-4-yl)-2-{[1-(hydroxyacetyl)pyrrolidin-3-yl]oxy}benzonitrile]",250 to 1000
4,"COc1cc(-c2ccnc(Nc3ccc(CN4CCC4)nc3)n2)cc(C#N)c1OC1CCOCC1 [Example Compound 115, 5-(2-{[6-(Azetidin-1-ylmethyl)pyridin-3-yl]amino}pyrimidin-4-yl)-3-methoxy-2-(tetrahydro-2H-pyran-4-yloxy)benzonitrile]",250 to 1000
5,"N#Cc1cc(-c2ccnc(Nc3ccnc(C(F)(F)F)c3)n2)ccc1O[C@@H]1CCN(C(=O)CO)C1 [Example Compound 122, 2-{[(3R)-1-(Hydroxyacetyl)pyrrolidin-3-yl]oxy}-5-(2-{[2-(trifluoromethyl)pyridin-4-yl]amino}pyrimidin-4-yl)benzonitrile]",250 to 1000

# Now from value to compound:
row,IC50 [nM],Compound
1,250 to 1000,"COCCNc1cc(Nc2nccc(-c3ccc(NC(=O)C4CC4)c(C#N)c3)n2)ccn1 [Example Compound 242, N-{2-Cyano-4-[2-({2-[(2-methoxyethyl)amino]pyridin-4-yl}amino)pyrimidin-4-yl]phenyl}cyclopropanecarboxamide]"
2,250 to 1000,"CNCc1cncc(Nc2nccc(-c3ccc(OC4CCOCC4)c(C#N)c3)n2)c1 [Example Compound 203, 5-[2-({5-[(Methylamino)methyl]pyridin-3-yl}amino)pyrimidin-4-yl]-2-(tetrahydro-2H-pyran-4-yloxy)benzonitrile]"

# Same assay, conditions: Homo sapiens, HEK-293T, 20 h, HEK293T cells, 20 hours; read-out: IC50, in-situ IKKε-mediated phosphorylation of IRF3
row,Compound,IC50 [nM]
1,"N#Cc1cc(-c2ccnc(Nc3ccc(N4CCC(N5CCOCC5)C4)nn3)n2)ccc1OC1CCOCC1 (stereo not shown) [Example Compound 177, 5-[2-({6-[3-(Morpholin-4-yl)pyrrolidin-1-yl]pyridazin-3-yl}amino)pyrimidin-4-yl]-2-(tetrahydro-2H-pyran-4-yloxy)benzonitrile]",1000 to 5000
2,"COC1CN(C(=O)Cc2csc(Nc3nccc(-c4ccc(OC5CCOCC5)c(C#N)c4)n3)n2)C1 [Example Compound 105, 5-[2-({4-[2-(3-Methoxyazetidin-1-yl)-2-oxoethyl]-1,3-thiazol-2-yl}amino)pyrimidin-4-yl]-2-(tetrahydro-2H-pyran-4-yloxy)benzonitrile]",1000 to 5000
3,"COC1CN(C(=O)c2ccc(Nc3nccc(-c4ccc(OC5CCOCC5)c(C#N)c4)n3)cn2)C1 [Example Compound 31, 5-[2-({6-[(3-Methoxyazetidin-1-yl)carbonyl]pyridin-3-yl}amino)pyrimidin-4-yl]-2-(tetrahydro-2H-pyran-4-yloxy)benzonitrile]",100 to 250
4,"N#Cc1cc(-c2ccnc(Nc3ccc(C4CC4)nc3)n2)ccc1NC(=O)C1CC1 [Example Compound 140, N-(2-Cyano-4-{2-[(6-cyclopropylpyridin-3-yl)amino]pyrimidin-4-yl}phenyl)cyclopropanecarboxamide]",< 100
5,"CN(C)c1ccc(-c2ccc(Nc3nccc(-c4ccc(OC5CCOCC5)c(C#N)c4)n3)cn2)cn1 [Example Compound 169, 5-(2-{[6′-(Dimethylamino)-2,3′-bipyridin-5-yl]amino}pyrimidin-4-yl)-2-(tetrahydro-2H-pyran-4-yloxy)benzonitrile]",1000 to 5000
6,"N#Cc1cc(-c2ccnc(Nc3cncc(C(=O)N4CCN(CCO)CC4)c3)n2)ccc1OC1CCOCC1 [Example Compound 174, 5-{2-[(5-{[4-(2-Hydroxyethyl)piperazin-1-yl]carbonyl}pyridin-3-yl)amino]pyrimidin-4-yl}-2-(tetrahydro-2H-pyran-4-yloxy)benzonitrile]",1000 to 5000
7,"N#Cc1cc(-c2ccnc(Nc3ccc(N4CCOCC4)nc3)n2)ccc1OC1CCOCC1 [Example Compound 6, 5-(2-{[6-(Morpholin-4-yl)pyridin-3-yl]amino}pyrimidin-4-yl)-2-(tetrahydro-2H-pyran-4-yloxy)benzonitrile]",100 to 250
8,"N#Cc1cc(-c2ccnc(Nc3ccc(C(=O)N4CCN(CCO)CC4)s3)n2)ccc1OC1CCOCC1 [Example Compound 163, 5-{2-[(5-{[4-(2-Hydroxyethyl)piperazin-1-yl]carbonyl}thiophen-2-yl)amino]pyrimidin-4-yl}-2-(tetrahydro-2H-pyran-4-yloxy)benzonitrile]",100 to 250
9,"Cc1ccc(Nc2nccc(-c3ccc(OC4CCN(C(=O)[C@@H](C)O)CC4)c(C#N)c3)n2)cn1 [Example Compound 129, 2-({1-[(2R)-2-Hydroxypropanoyl]piperidin-4-yl}oxy)-5-{2-[(6-methylpyridin-3-yl)amino]pyrimidin-4-yl}benzonitrile]",1000 to 5000
10,"COc1cc(-c2ccnc(Nc3ccc(CN4CC(OC)C4)nc3)n2)cc(C#N)c1OC1CCOCC1 [Example Compound 116, 3-Methoxy-5-[2-({6-[(3-methoxyazetidin-1-yl)methyl]pyridin-3-yl}amino)pyrimidin-4-yl]-2-(tetrahydro-2H-pyran-4-yloxy)benzonitrile]",100 to 250
11,"CN(C)c1ccc(Nc2nccc(-c3ccc(O[C@@H]4CCN(C(=O)CO)C4)c(C#N)c3)n2)cn1 [Example Compound 124, 5-(2-{[6-(Dimethylamino)pyridin-3-yl]amino}pyrimidin-4-yl)-2-{[1-(hydroxyacetyl)pyrrolidin-3-yl]oxy}benzonitrile]",100 to 250
12,"CN(C)c1ccc(Nc2nccc(-c3ccc(OC4CCOCC4)c(C#N)c3)n2)cn1 [Example Compound 152, 5-(2-{[6-(Dimethylamino)pyridin-3-yl]amino}pyrimidin-4-yl)-2-(tetrahydro-2H-pyran-4-yloxy)benzonitrile]",100 to 250
13,"CCN(CC)c1ccc(Nc2nccc(-c3ccc(OC4CCOCC4)c(C#N)c3)n2)cn1 [Example Compound 153, 5-(2-{[6-(Diethylamino)pyridin-3-yl]amino}pyrimidin-4-yl)-2-(tetrahydro-2H-pyran-4-yloxy)benzonitrile]",100 to 250
14,"COC1CCN(c2cc(Nc3nccc(-c4ccc(OC5CCOCC5)c(C#N)c4)n3)ccn2)C1 (stereo not shown) [Example Compound 181, 5-(2-{[2-(3-Methoxypyrrolidin-1-yl)pyridin-4-yl]amino}pyrimidin-4-yl)-2-(tetrahydro-2H-pyran-4-yloxy)benzonitrile]",1000 to 5000

# The next lines start with the values.
row,IC50 [nM],Compound
1,1000 to 5000,"N#Cc1cc(-c2ccnc(Nc3ccnc(C(=O)N4CCCC4)c3)n2)ccc1OC1CCN(C(=O)CO)CC1 [Example Compound 233, 2-{[1-(Hydroxyacetyl)piperidin-4-yl]oxy}-5-(2-{[2-(pyrrolidin-1-ylcarbonyl)pyridin-4-yl]amino}pyrimidin-4-yl)benzonitrile]"
2,1000 to 5000,"CC(C)C(=O)Nc1ccc(-c2ccnc(Nc3ccnc(N4CC(O)C4)c3)n2)cc1C#N [Example Compound 246, N-[2-Cyano-4-(2-{[2-(3-hydroxyazetidin-1-yl)pyridin-4-yl]amino}pyrimidin-4-yl)phenyl]-2-methylpropanamide]"
3,100 to 250,"CN(C)Cc1cncc(Nc2nccc(-c3ccc(OC4CCOCC4)c(C#N)c3)n2)c1 [Example Compound 201, 5-[2-({5-[(Dimethylamino)methyl]pyridin-3-yl}amino)pyrimidin-4-yl]-2-(tetrahydro-2H-pyran-4-yloxy)benzonitrile]"
4,1000 to 5000,"C[C@H](O)C(=O)N1CCC(Oc2ccc(-c3ccnc(Nc4ccc(N5CC(O)C5)nc4)n3)cc2C#N)CC1 [Example Compound 253, 5-(2-{[6-(3-Hydroxyazetidin-1-yl)pyridin-3-yl]amino}pyrimidin-4-yl)-2-({1-[(2S)-2-hydroxypropanoyl]piperidin-4-yl}oxy)benzonitrile]"
5,1000 to 5000,"Cc1ccc(Nc2nccc(-c3ccc(OC4CCN(C(=O)[C@H](C)O)CC4)c(C#N)c3)n2)c[n+]1[O-] [Example Compound 235, 2-({1-[(2S)-2-Hydroxypropanoyl]piperidin-4-yl}oxy)-5-{2-[(6-methyl-1-oxidopyridin-3-yl)amino]pyrimidin-4-yl}benzonitrile]"
6,100 to 250,"COC1CN(C(C)c2ccc(Nc3nccc(-c4ccc(OC5CCOCC5)c(C#N)c4)n3)cn2)C1 (stereo not shown) [Example Compound 234, 5-[2-({6-[1-(3-Methoxyazetidin-1-yl)ethyl]pyridin-3-yl}amino)pyrimidin-4-yl]-2-(tetrahydro-2H-pyran-4-yloxy)benzonitrile]"
7,1000 to 5000,"N#Cc1cc(-c2ccnc(Nc3ccc[n+]([O-])c3)n2)ccc1OC1CCOCC1 [Example Compound 236, 5-{2-[(1-Oxidopyridin-3-yl)amino]pyrimidin-4-yl}-2-(tetrahydro-2H-pyran-4-yloxy)benzonitrile]"
